Source: patent US7488425B2, “Method for photolyzing organic matter and method for treating wastewater” (Nisshinbo Industries, Inc., priority 2004, dated 2009)
Where a name gives a salt, the structure may show the parent alone.

Tests used:
[1] = Mixing with simple distilled water (phase separation, hydrophobicity); type: physicochemical
From the text: As used herein, “hydrophobic” refers to the property of, after being mixed or stirred with water, separating again into two phases on standing. While it suffices for the hydrophobic ionic liquid to have this quality, when the above photolytic process is employed for the subsequently described wastewater treatment or the like, a hydrophobic ionic liquid with a lower solubility in water will result in a smaller loss of ionic liquid during wastewater treatment and enable treated water having a higher degree of cleanliness to be obtained.
(§1) The solubility in simple distilled water (25° C.) was about 1.5 wt %.

[2] = Solubility of the ionic liquid in simple distilled water; type: physicochemical; settings: 25° C.
Method: as §1

SMILES	behaviour when mixed with simple distilled water [1]	solubility in simple distilled water [2]
CCn1cc[n+](C)c1.O=S(=O)([O-])C(F)(F)F [EMIMTfO, 1-ethyl-3-methylimidazolium trifluoromethanesulfonate, reference compound]	forms a homogeneous phase	
CC[N+](C)(CC)CCOC [ionic liquid (2), Bis(trifluoromethanesulfonyl)imide Salt of N,N-Diethyl-N-methyl-N-(2-methoxyethyl)ammonium]	separated into two phases	about 1.5 wt %
